Data reported in patent US20100016232A1, “Treatment Of Inflammatory Diseases With Mammal Beta Defensins” (Novozymes A/S, priority 2008, published 2010).
Marks after values point to notes of the source that are not given here.

Assays:
[1] = tested on: IL-1β production from human peripheral blood mononuclear cells (PBMC); assay: IL-1β production from human PBMC, Cytometric Bead Array; type: cell-based; conditions: concentration of control compound not given, Table 18
Procedure: (§1) Peripheral blood was drawn from healthy volunteers (with approval from the relevant ethical committee in Denmark). Heparinized blood was diluted 1/1 v/v with RPMI and were subjected to Ficoll density centrifugation within 2 h of drawing. Plasma was collected from the top from individual donors and was kept on ice until it was used at 2% in the culture medium (autologous culture medium). Isolated PBMC were resuspended in autologous culture medium and seeded in 96-well culture plates with 255.000 cells per well in a total of 200 μl. […] The concentrations used for stimulation were optimized on 3 different donors in initial experiments, for LPS two different concentrations were used to be sure to be on a cytokine level that is possible to modulate. In some experiments PBMC were treated with Dexamethason and Indomethacin alone and together with LPS or LTA as a control on downregulation of inflammatory cytokines. The supernatants were collected after incubation at 37° C. for 24 hours, and stored at −80° C. until cytokine measurement. Viability was measured by Alamar Blue (Biosource, DALL 1100) in all experiments and in some cases also by MTS (Promega) according to manufacturer's instruction and was in some experiments also judged by counting of the cells by a Nucleocounter.
(§2) Cytokine production in supernatants was measured by flow cytometry with a human inflammation cytometric bead array (CBA) according to manufacturer's instructions (BD) on a FACSarray flow cytometer. The following cytokines were measured: IL-8, IL-1β, IL-10, TNF, IL-12 p70, IL-6. In some experiments, cytokines were measured by ELISA kits from R&D systems (IL-10, TNF-α, IL-1β) according to the manufacturer' instruction.

[2] = tested on: IL-10 production from human peripheral blood mononuclear cells (PBMC); assay: IL-10 production from human PBMC, Cytometric Bead Array; type: cell-based; conditions: concentration of control compound not given, Table 17
Procedure: as §1, §2

[3] = tested on: IL-23, human CD14+ monocyte-derived dendritic cells; assay: IL-23 in supernatants of human CD14+ monocyte-derived dendritic cells, ELISA; type: cell-based; conditions: Dexamethasone 1 μM
Procedure: The DCs were prepared according to a modified protocol originally described by Romani et al. Briefly, peripheral blood mononuclear cells (PBMCs) were purified from buffy coats of healthy donors by centrifugation over a Ficoll-pague (GE-healthcare) gradient. Monocytes were isolated from PBMC by positive selection of CD14+ cells by magnetic beads (Dynal, Invitrogen) according to the manufacturer's instructions. The CD14+ monocytes were cultured in 6-well plates in RPMI/2% Human AB Serum recombinant human recombinant granulocyte-macrophage colony-stimulating factor (GM-CSF, 20 ng/ml) and IL-4 (20 ng/ml) (PeproTech) for 6 days, replenishing the medium/cytokines after 2 and 5 days.
(§3) Cell culture supernatants were collected and stored at −80° C. Amounts of IL-23 was measured by standard sandwich ELISA using commercially available antibodies and standards according to the manufacturer's protocols (eBioscience).

IL-23, human PBMC = assay: IL-23 in supernatants of human PBMC, ELISA; type: cell-based; conditions: treatment 3.5 ng/ml
Procedure: as §1, with “Nucleocounter. […]” for “Nucleocounter.”
as §3

[4] = tested on: TNF production from mouse peripheral blood mononuclear cells (PBMC); assay: TNF production from mouse PBMC, Cytometric Bead Array; type: cell-based; conditions: LPS 20 ng/ml, treatment 3.5 ng/ml
Procedure: Mouse peripheral blood mononuclear cells were isolated from blood of ten NMRI mice. In short, heparinized blood was diluted 1/1 v/v with RPMI and subjected to Ficoll density centrifugation within 2 h of drawing. Plasma was collected from the top and discarded. Isolated PBMC were resuspended in culture medium (RPMI 1640 (Gibco, 42401) w/1% penicillin and streptomycin and 1% L-Glutamine) and seeded in 96-well culture plates with 115.500 cells per well in a total of 200 μl. […] The supernatants were collected after incubation at 37° C. for 24 hours, and stored at −80° C. until cytokine measurement.
Cytokine production in supernatants was measured by flow cytometry with a mouse inflammation cytometric bead array (CBA) according to manufacturer's instructions (BD) on a FACSarray flow cytometer.

[5] = tested on: collagen-induced arthritis (CIA) in the mouse; assay: Collagen-induced rheumatoid arthritis model, clinical arthritis score; type: in vivo; set-up: key: each paw scored 0-4 by ascending severity; total summed over paws; conditions: Group B, 1 mg/kg IP once daily
Procedure: All animals were subjected on Day 0 of the study (study commencement) to an intradermal injection into the tail of 0.1 ml Type II Collagen/CFA emulsion (200 μg collagen per mouse) under light Isoflurane anesthesia, using a plastic syringe. The location of injection was at an approximate caudal distance of about 1 cm from the base of the tail. A collagen challenge (200 μg/mouse) was presented to the animals by IP injection of collagen and PBS on Day 21.
Treatments were commenced on day 14 of the study and continued once daily throughout. All surviving mice were terminated on study day 42.
Mice were examined for signs of arthritogenic responses in peripheral joints on study day 0, 14, 21 and thereafter five times weekly until termination of the study. Arthritis reactions were reported for each paw according to a 0-4 scale in ascending order of severity as shown below:
In accordance with Home Office regulations mice with a total clinical score of equal to or greater than 12 were culled due to arthritis severity. The clinical score of these mice at termination was carried forward in the analysis for the remainder of the study in order that the data was not artificially skewed by the removal of high scoring mice.

C[C@@H]1C[C@H]2[C@@H]3CCC4=CC(=O)C=C[C@]4(C)[C@@]3(F)[C@@H](O)C[C@]2(C)[C@@]1(O)C(=O)CO [Dexamethasone, reference compound]
IL-1β % of control ([1]; LPS 0.6 ng/ml): 14% | IL-1β % of control ([1]; LPS 20 ng/ml): 44% | IL-10 % of control ([2]; LPS 0.6 ng/ml): 70% | IL-10 % of control ([2]; LPS 20 ng/ml): 67% | IL-23 ([3]; LPS (100 ng/ml) and IFN-γ (20 ng/ml)): 1147 pg/mL | IL-23 ([3]; Unstimulated): 424 pg/mL | IL-23 (IL-23, human PBMC; Control (medium)): 222 pg/mL | IL-23 (IL-23, human PBMC; LTA 5 μg/ml): 223 pg/mL | TNF [4]: 328 pg/mL | Mean Arthritic Score ([5]; Study Day 0): 0.0 | Mean Arthritic Score ([5]; Study Day 14): 0.4 | Mean Arthritic Score ([5]; Study Day 21): 0.0 | Mean Arthritic Score ([5]; Study Day 22): 0.0 | Mean Arthritic Score ([5]; Study Day 23): 0.0 | Mean Arthritic Score ([5]; Study Day 26): 0.0* | Mean Arthritic Score ([5]; Study Day 27): 0.0* | Mean Arthritic Score ([5]; Study Day 28): 0.0* | Mean Arthritic Score ([5]; Study Day 29): 0.0* | Mean Arthritic Score ([5]; Study Day 30): 0.0* | Mean Arthritic Score ([5]; Study Day 33): 0.0* | Mean Arthritic Score ([5]; Study Day 34): 0.0* | Mean Arthritic Score ([5]; Study Day 35): 0.0* | Mean Arthritic Score ([5]; Study Day 36): 0.0* | Mean Arthritic Score ([5]; Study Day 37): 0.0* | Mean Arthritic Score ([5]; Study Day 40): 0.0* | Mean Arthritic Score ([5]; Study Day 41): 0.0*
